Data published in patent US11104690B2, “Indazole derivatives useful as inhibitors of diacylglyceride O-acyltransferase 2” (Merck Sharp & Dohme Corp., priority 2016, dated 2021).

Each compound was assayed against Human DGAT2 (Homo sapiens (Human), UniProt Q96PD7) (assay: DGAT2 Enzymatic Activity Assay (triolein formation, LC/MS/MS)). Settings: hDGAT2 Sf-9 membrane prep; 25 μM diolein, 10 μM oleoyl-CoA; room temperature.
Format: biochemical
Procedure, shortened: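 Triolein product, measured by LC/MS/MS as a ratio to internal standard, gave % inhibition and 4-parameter IC50. Reaction: 25 μM diolein, 10 μM oleoyl-CoA, 10 ng/μL hDGAT2 Sf-9 membrane, 100 mM Tris.Cl pH 7.0, 20 mM MgCl2, 5% ethanol, room temperature.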

Human DGAT2, sequence (Q96PD7 whole entry): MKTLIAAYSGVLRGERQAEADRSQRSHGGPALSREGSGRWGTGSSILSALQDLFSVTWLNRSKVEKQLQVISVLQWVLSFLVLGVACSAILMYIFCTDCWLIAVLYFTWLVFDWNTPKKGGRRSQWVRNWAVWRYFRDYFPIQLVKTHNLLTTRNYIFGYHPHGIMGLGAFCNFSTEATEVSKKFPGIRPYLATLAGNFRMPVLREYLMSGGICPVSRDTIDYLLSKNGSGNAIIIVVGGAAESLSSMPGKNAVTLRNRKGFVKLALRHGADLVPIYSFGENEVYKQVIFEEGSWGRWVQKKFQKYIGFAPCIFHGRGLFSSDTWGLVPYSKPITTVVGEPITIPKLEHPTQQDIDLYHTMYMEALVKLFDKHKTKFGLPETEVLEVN

Row | SMILES | IC50 [nM]
1 | COc1ccc(-c2nn(-c3ccc(F)cc3)c3cc(C(=O)NC4(C)CCS(=O)(=O)C4)ccc23)cn1 (single isomer, unassigned) [Example 155-A, 1-(4-fluorophenyl)-3-(6-methoxypyridin-3-yl)-N-(3-methyl-1,1-dioxidotetrahydrothiophen-3-yl)-1H-indazole-6-carboxamide] | 353
2 | CC1(NC(=O)c2ccc3c(-c4cc(Cl)cc(Cl)c4)nn(-c4ccc(F)cc4)c3c2)CCS(=O)(=O)C1 (single isomer, unassigned) [Example 157-A, 3-(3,5-dichlorophenyl)-1-(4-fluorophenyl)-N-(3-methyl-1,1-dioxidotetrahydrothiophen-3-yl)-1H-indazole-6-carboxamide] | 61
3 | CC1(NC(=O)c2ccc3c(-c4ccnc(C(F)(F)F)c4)nn(-c4ccc(F)cc4)c3c2)CCS(=O)(=O)C1 (single isomer, unassigned) [Example 159-A, 1-(4-fluorophenyl)-N-(3-methyl-1,1-dioxidotetrahydrothiophen-3-yl)-3-[2-(trifluoromethyl)pyridin-4-yl]-1H-indazole-6-carboxamide] | 469
4 | CC1(NC(=O)c2ccc3c(-c4ccccc4)nn(-c4ccc(F)cc4)c3c2)CCS(=O)(=O)C1 (single isomer, unassigned) [Example 162-A, 1-(4-fluorophenyl)-N-(3-methyl-1,1-dioxidotetrahydrothiophen-3-yl)-3-phenyl-1H-indazole-6-carboxamide] | 157
5 | O=C(NC1CCS(=O)(=O)C1)c1ccc2c(-c3ccc[n+]([O-])c3)nn(-c3ccc(F)cc3)c2c1 (single isomer, unassigned) [Example 166-A, 3-(6-((1,1-dioxidotetrahydrothiophen-3-yl)carbamoyl)-1-(4-fluorophenyl)-1H-indazol-3-yl)pyridine 1-oxide] | 843
6 | CC1(NC(=O)c2ccc3c(-c4ccccc4Cl)nn(-c4ccccn4)c3c2)CCS(=O)(=O)C1 (single isomer, unassigned) [Example 174-A, 3-(2-chlorophenyl)-N-(3-methyl-1,1-dioxidotetrahydrothiophen-3-yl)-1-pyridin-2-yl-1H-indazole-6-carboxamide] | 71
7 | CC1(NC(=O)c2ccc3c(-c4ccccc4Cl)nn(-c4ccccn4)c3c2)CCS(=O)(=O)C1 (single isomer, unassigned) [Example 174-B, 3-(2-chlorophenyl)-N-(3-methyl-1,1-dioxidotetrahydrothiophen-3-yl)-1-pyridin-2-yl-1H-indazole-6-carboxamide] | 75
8 | O=C(NC1CCS(=O)(=O)C1)c1ccc2c(-c3ccccc3Cl)nn(-c3ccccn3)c2c1 (single isomer, unassigned) [Example 175-A, 3-(2-chlorophenyl)-N-(1,1-dioxidotetrahydrothiophen-3-yl)-1-pyridin-2-yl-1H-indazole-6-carboxamide] | 338
9 | O=C(NC1CCS(=O)(=O)C1)c1ccc2c(-c3ccccc3Cl)nn(-c3ccc(F)cn3)c2c1 (single isomer, unassigned) [Example 176-A, 3-(2-chlorophenyl)-N-(1,1-dioxidotetrahydrothiophen-3-yl)-1-(5-fluoropyridin-2-yl)-1H-indazole-6-carboxamide] | 252
10 | Cc1noc([C@H](NC(=O)c2ccc3c(-c4ccccc4Cl)nn(-c4ccc(F)cc4)c3c2)[C@H](C)O)n1 (stereo in doubt) [Example 48, 3-(2-chlorophenyl)-1-(4-fluorophenyl)-N-[(1R,2S)-2-hydroxy-1-(3-methyl-1,2,4-oxadiazol-5-yl)propyl]-1H-indazole-6-carboxamide] | 96
11 | N#Cc1cccc(-c2nn(-c3ccc(F)cn3)c3cc(C(=O)N[C@H]4CCS(=O)(=O)C4)ccc23)c1 [177-B] | 86
12 | C[C@@H](NC(=O)c1ccc2c(-c3ccccc3Cl)nn(-c3ccc(F)cc3)c2c1)c1ccc(C(F)(F)F)[n+]([O-])c1 [Example 3, 3-(2-chlorophenyl)-1-(4-fluorophenyl)-N-{(1R)-1-[1-oxido-6-(trifluoromethyl)pyridin-3-yl]ethyl}-1H-indazole-6-carboxamide] | 155
13 | C[C@@H](NC(=O)c1ccc2c(-c3ccccc3Cl)nn(-c3ccc(F)cc3)c2c1)c1cnc(C(F)(F)F)nc1 [Example 4, 3-(2-chlorophenyl)-1-(4-fluorophenyl)-N-{(1R)-1-[2-(trifluoromethyl)pyrimidin-5-yl]ethyl}-1H-indazole-6-carboxamide] | 67
14 | N[C@H]1CS(=O)(=O)C[C@@H]1NC(=O)c1ccc2c(-c3ccccc3Cl)nn(-c3ccc(F)cc3)c2c1 [Example 8, N-[(3R,4R)-4-amino-1,1-dioxidotetrahydrothiophen-3-yl]-3-(2-chlorophenyl)-1-(4-fluorophenyl)-1H-indazole-6-carboxamide] | 554
15 | O=C(N[C@@H]1CS(=O)(=O)C[C@H]1O)c1ccc2c(-c3ccccc3Cl)nn(-c3ccc(F)cc3)c2c1 [Example 9, 3-(2-chlorophenyl)-1-(4-fluorophenyl)-N-[(3S,4S)-4-hydroxy-1,1-dioxidotetrahydrothiophen-3-yl]-1H-indazole-6-carboxamide] | 531
16 | O=C(Nc1ccc(C(F)(F)F)nc1)c1ccc2c(-c3ccccc3Cl)nn(-c3ccc(F)cc3)c2c1 [Example 10, 3-(2-chlorophenyl)-1-(4-fluorophenyl)-N-[6-(trifluoromethyl)pyridin-3-yl]-1H-indazole-6-carboxamide] | 608
17 | COC[C@H](C)NC(=O)c1ccc2c(-c3ccccc3Cl)nn(-c3ccc(F)cc3)c2c1 [Example 12, 3-(2-chlorophenyl)-1-(4-fluorophenyl)-N-[(1S)-2-methoxy-1-methylethyl]-1H-indazole-6-carboxamide] | 85
18 | CC(C)(C)NC(=O)c1ccc2c(-c3ccccc3Cl)nn(-c3ccc(F)cc3)c2c1 [Example 15, N-tert-butyl-3-(2-chlorophenyl)-1-(4-fluorophenyl)-1H-indazole-6-carboxamide] | 77

Compounds with a lower IC50, results first:

Row | IC50 [nM] | SMILES
19 | 56 | CC1(NC(=O)c2ccc3c(-c4ccccc4Cl)nn(-c4ccc(F)cn4)c3c2)CCS(=O)(=O)C1 (single isomer, unassigned) [Example 172-B, 3-(2-chlorophenyl)-1-(5-fluoropyridin-2-yl)-N-(3-methyl-1,1-dioxidotetrahydrothiophen-3-yl)-1H-indazole-6-carboxamide]
20 | 48 | C[C@H](NC(=O)c1ccc2c(-c3ccccc3Cl)nn(-c3ccc(F)cc3)c2c1)c1ccc(C(F)(F)F)nc1 [Example 13, 3-(2-chlorophenyl)-1-(4-fluorophenyl)-N-{(1S)-1-[6-(trifluoromethyl)pyridin-3-yl]ethyl}-1H-indazole-6-carboxamide]
21 | 45 | O=C(N[C@H](CO)c1ccc(C(F)(F)F)nc1)c1ccc2c(-c3ccccc3Cl)nn(-c3ccc(F)cc3)c2c1 [Example 5, 3-(2-chlorophenyl)-1-(4-fluorophenyl)-N-{(1S)-2-hydroxy-1-[6-(trifluoromethyl)pyridin-3-yl]ethyl}-1H-indazole-6-carboxamide]
22 | 39 | CC1(NC(=O)c2ccc3c(-c4ccccc4Cl)nn(-c4ccc(F)cn4)c3c2)CCS(=O)(=O)C1 (single isomer, unassigned) [Example 172-A]
23 | 38 | C[C@@H](NC(=O)c1ccc2c(-c3ccccc3Cl)nn(-c3ccc(F)cc3)c2c1)c1ccc(C(F)(F)F)nc1 [Example 11, 3-(2-chlorophenyl)-1-(4-fluorophenyl)-N-{(1R)-1-[6-(trifluoromethyl)pyridin-3-yl]ethyl}-1H-indazole-6-carboxamide]
24 | 32 | CC1(NC(=O)c2ccc3c(-c4cccc(C#N)c4)nn(-c4ccc(F)cn4)c3c2)CCS(=O)(=O)C1 (single isomer, unassigned) [Example 178-B, 3-(3-cyanophenyl)-1-(5-fluoropyridin-2-yl)-N-(3-methyl-1,1-dioxidotetrahydrothiophen-3-yl)-1H-indazole-6-carboxamide]
25 | 31 | CC1(NC(=O)c2ccc3c(-c4cccc(Cl)c4)nn(-c4ccc(F)cc4)c3c2)CCS(=O)(=O)C1 (single isomer, unassigned) [Example 158-A, 3-(3-chlorophenyl)-1-(4-fluorophenyl)-N-(3-methyl-1,1-dioxidotetrahydrothiophen-3-yl)-1H-indazole-6-carboxamide]
26 | 28 | COc1cc(C#N)cc(-c2nn(-c3ccc(F)cc3)c3cc(C(=O)NC4(C)CCS(=O)(=O)C4)ccc23)c1F (single isomer, unassigned) [Example 161-B, 3-(5-cyano-2-fluoro-3-methoxyphenyl)-1-(4-fluorophenyl)-N-(3-methyl-1,1-dioxidotetrahydrothiophen-3-yl)-1H-indazole-6-carboxamide]
27 | 23 | O=C(NC1CCS(=O)(=O)C1)c1ccc2c(-c3ccccc3Cl)nn(-c3ccc(Cl)cn3)c2c1 (single isomer, unassigned) [Example 173-A, 3-(2-chlorophenyl)-1-(5-chloropyridin-2-yl)-N-(1,1-dioxidotetrahydrothiophen-3-yl)-1H-indazole-6-carboxamide]
28 | 15 | CC1(NC(=O)c2ccc3c(-c4ccccc4Cl)nn(-c4ccc(Cl)cn4)c3c2)CCS(=O)(=O)C1 (single isomer, unassigned) [Example 171-A, 3-(2-Chlorophenyl)-1-(5-chloropyridin-2-yl)-N-(3-methyl-1,1-dioxidotetrahydrothiophen-3-yl)-1H-indazole-6-carboxamide]
29 | 11 | Cc1cccc(-c2nn(-c3ccc(F)cc3)c3cc(C(=O)NC4(C)CCS(=O)(=O)C4)ccc23)c1 (single isomer, unassigned) [Example 156-A, 1-(4-fluorophenyl)-N-(3-methyl-1,1-dioxidotetrahydrothiophen-3-yl)-3-(3-methylphenyl)-1H-indazole-6-carboxamide]
30 | 6.9 | CC1(NC(=O)c2ccc3c(-c4cc(C(F)(F)F)ccc4Cl)nn(-c4ccc(F)cc4)c3c2)CCS(=O)(=O)C1 (single isomer, unassigned) [Example 160-A, 3-[2-chloro-5-(trifluoromethyl)phenyl]-1-(4-fluorophenyl)-N-(3-methyl-1,1-dioxidotetrahydrothiophen-3-yl)-1H-indazole-6-carboxamide]
